We go through 16 compounds from patent US20240382483A1, “HETEROCYCLIC EGFR INHIBITORS FOR USE IN THE TREATMENT OF CANCER” (Blueprint Medicines Corporation, priority 2021, published 2024).

Where a name gives a salt, the structure may show the parent alone.

Assay [1] addresses T1, intracellular phosphorylation of EGFR in NCI-H1975 cell line that harbors the EGFR L858R T790M mutations (Homo sapiens, UniProt P00533, L858R/T790M).
T1 construct: NCI-H1975 cell line that harbors the EGFR L858R T790M mutations (ATCC, CRL-5908); host or cells: NCI-H1975
Kind of assay: NCI-H1975 pEGFR AlphaLISA assay. The assay is classed as cell-based. Conditions: NCI-H1975 cells (EGFR L858R T790M), p-EGFR (Tyr1068), 4-5 hours incubation; read-out: Ext pEGFR H1975 GMean IC50 (nM) Protocol: @Pharmaron AlphaLISA (Num). Here is the method: On the next day, the test compounds and DMSO control were added into H1975 cell plate followed by incubation at 37C/5% CO2 for 4-5 hours. […] Then 5 μL of a donor bead mix was added to each well followed by overnight incubation at room temperature in dark. On the next day, the plate was read at a compatible plate reader to obtain pEGFR signal. Percent of pEGFR inhibition was plotted against log concentration of compounds to generate IC50 values.
(Bead proximity is the source of the signal in Alpha formats.)

Another assay has as its target T2, EGFR (L858R T790M C797S) (Homo sapiens, UniProt P00533, C797S/L858R/T790M).
T2 construct: purchased SignalChem E10-122VG
Nature of the assay: Biochemical EGFR inhibition assay (Caliper mobility shift), EGFR LRTMCS. Conditions: LRTMCS (PH) IC50 (nM) @ 1 mM ATP (Num), EGFR LRTMCS mutant. In outline: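 Kinase reactions proceed at 25° C. to 10%–20% conversion of total peptide, are terminated with 35 mM EDTA, and the phosphopeptide is resolved from substrate by electrophoretic mobility shift. Apparent IC50 values come from plotting percent activity against log compound concentration.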

For assay [2], the system named is EGFR mutant NSCLC (EGFR M+). Conditions: NSCLC patients; cited from earlier work.

T2 sequence (P00533 25-1210 T790M/C797S/L858R): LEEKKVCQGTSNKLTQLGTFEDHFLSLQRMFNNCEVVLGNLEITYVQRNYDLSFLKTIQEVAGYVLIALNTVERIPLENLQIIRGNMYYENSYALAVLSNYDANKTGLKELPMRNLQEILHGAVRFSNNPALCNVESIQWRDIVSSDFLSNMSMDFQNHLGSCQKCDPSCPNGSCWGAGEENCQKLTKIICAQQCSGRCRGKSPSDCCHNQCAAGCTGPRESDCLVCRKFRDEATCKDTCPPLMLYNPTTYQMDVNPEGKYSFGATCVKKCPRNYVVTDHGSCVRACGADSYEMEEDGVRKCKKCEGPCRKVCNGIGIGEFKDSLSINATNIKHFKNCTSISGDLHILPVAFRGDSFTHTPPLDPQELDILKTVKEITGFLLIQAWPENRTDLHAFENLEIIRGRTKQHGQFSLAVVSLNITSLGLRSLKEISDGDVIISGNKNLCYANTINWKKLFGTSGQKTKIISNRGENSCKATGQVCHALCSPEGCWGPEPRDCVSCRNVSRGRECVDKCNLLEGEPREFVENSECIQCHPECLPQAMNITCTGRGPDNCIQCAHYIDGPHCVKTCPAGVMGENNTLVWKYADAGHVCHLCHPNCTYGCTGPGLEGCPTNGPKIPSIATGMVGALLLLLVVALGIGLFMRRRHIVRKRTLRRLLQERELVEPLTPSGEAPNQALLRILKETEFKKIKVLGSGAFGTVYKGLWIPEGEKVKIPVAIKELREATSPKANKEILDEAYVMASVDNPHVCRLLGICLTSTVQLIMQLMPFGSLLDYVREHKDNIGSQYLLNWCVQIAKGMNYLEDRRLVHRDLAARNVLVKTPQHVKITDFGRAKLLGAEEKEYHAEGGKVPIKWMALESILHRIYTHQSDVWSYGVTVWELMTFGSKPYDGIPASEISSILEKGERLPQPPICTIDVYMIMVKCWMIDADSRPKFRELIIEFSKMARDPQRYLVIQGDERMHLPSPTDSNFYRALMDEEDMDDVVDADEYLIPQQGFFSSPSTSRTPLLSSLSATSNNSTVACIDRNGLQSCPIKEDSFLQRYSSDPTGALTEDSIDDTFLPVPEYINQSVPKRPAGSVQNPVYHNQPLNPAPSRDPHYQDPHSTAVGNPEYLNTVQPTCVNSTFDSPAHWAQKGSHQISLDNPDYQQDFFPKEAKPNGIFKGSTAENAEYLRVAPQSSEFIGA
T1 sequence (P00533 25-1210 T790M/L858R): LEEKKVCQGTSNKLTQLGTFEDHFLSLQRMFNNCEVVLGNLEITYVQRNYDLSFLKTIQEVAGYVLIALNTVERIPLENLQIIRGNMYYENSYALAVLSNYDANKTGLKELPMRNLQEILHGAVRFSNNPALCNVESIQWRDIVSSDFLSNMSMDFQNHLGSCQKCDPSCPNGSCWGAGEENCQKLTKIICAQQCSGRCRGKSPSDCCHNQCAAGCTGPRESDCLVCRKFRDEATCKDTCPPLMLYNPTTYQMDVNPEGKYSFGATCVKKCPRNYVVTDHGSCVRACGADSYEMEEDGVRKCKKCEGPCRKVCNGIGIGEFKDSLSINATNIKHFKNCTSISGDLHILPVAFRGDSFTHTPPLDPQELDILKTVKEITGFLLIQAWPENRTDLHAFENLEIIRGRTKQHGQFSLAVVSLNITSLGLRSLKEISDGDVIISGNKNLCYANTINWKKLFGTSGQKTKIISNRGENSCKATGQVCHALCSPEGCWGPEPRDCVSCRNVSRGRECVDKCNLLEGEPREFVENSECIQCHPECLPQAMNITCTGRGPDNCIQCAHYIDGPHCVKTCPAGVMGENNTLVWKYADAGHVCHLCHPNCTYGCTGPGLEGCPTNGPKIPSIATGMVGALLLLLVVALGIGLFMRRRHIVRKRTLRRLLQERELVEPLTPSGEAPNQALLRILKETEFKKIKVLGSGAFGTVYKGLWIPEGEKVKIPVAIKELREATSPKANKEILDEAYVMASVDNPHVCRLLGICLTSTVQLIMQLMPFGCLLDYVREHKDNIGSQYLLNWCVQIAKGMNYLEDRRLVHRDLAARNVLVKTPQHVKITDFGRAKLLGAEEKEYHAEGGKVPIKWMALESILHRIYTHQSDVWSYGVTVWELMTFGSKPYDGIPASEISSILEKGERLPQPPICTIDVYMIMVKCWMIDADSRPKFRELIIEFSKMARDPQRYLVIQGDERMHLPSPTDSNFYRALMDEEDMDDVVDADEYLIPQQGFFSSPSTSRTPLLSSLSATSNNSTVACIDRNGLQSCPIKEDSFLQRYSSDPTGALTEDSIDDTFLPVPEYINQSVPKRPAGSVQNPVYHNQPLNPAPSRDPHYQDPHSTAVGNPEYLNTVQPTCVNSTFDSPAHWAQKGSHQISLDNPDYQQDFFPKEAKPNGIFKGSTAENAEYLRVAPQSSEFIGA

A word on the IC50: it is the midpoint of a concentration-inhibition curve. Turning to `CC(C)c1cnc(N2C[C@H](O)[C@H]2C)c2cnc(Nc3ccnc(N4CC[C@@H](O)[C@@H](F)C4)n3)cc12` [Example 154, (3S,4R)-3-fluoro-1-(4-((8-((2R,3S)-3-hydroxy-2-methylazetidin-1-yl)-5-isopropyl-2,7-naphthyridin-3-yl)amino)pyrimidin-2-yl)piperidin-4-ol], the IC50 in assay [1] is 10 to 20 nM; at EGFR (L858R T790M C797S), under 15 nM. Consider `CO[C@@H]1CCN(c2nccc(Nc3cc4c(C(C)C)cnc(N5C[C@H](OCCN)[C@H]5C)c4cn3)n2)C[C@@H]1F` [Example 163, 8-((2R,3S)-3-(2-aminoethoxy)-2-methylazetidin-1-yl)-N-(2-((3S,4R)-3-fluoro-4-methoxypiperidin-1-yl)pyrimidin-4-yl)-5-isopropyl-2,7-naphthyridin-3-amine], for which the figures for the IC50 (in assay [1]; at EGFR (L858R T790M C797S)) were 20 to 30 nM and under 15 nM, respectively.

For `CNC[C@@H]1CCN1c1ncc(C(C)C)c2cc(Nc3ccnc(N4CC[C@H](OC)[C@H](F)C4)n3)ncc12` [Example 164, N-(2-((3R,4S)-3-fluoro-4-methoxypiperidin-1-yl)pyrimidin-4-yl)-5-isopropyl-8-((S)-2-((methylamino)methyl)azetidin-1-yl)-2,7-naphthyridin-3-amine], the values for the IC50 (in assay [1]; on EGFR (L858R T790M C797S)) were 30 to 50 nM and under 15 nM, respectively. The like results for `CO[C@H]1CCN(c2nccc(Nc3cc4c(C(C)C)cnc(N5CC[C@H]5CN)c4cn3)n2)C[C@H]1F` [Example 165, 8-((S)-2-(aminomethyl)azetidin-1-yl)-N-(2-((3R,4S)-3-fluoro-4-methoxypiperidin-1-yl)pyrimidin-4-yl)-5-isopropyl-2,7-naphthyridin-3-amine] were, in that order, 20 to 30 nM and under 15 nM. The matching figures for `CC(C)c1cnc(N2CCC23CNC3)c2cnc(Nc3ccnc(N4CC[C@@H](O)[C@@](C)(F)C4)n3)cc12` [Example 190, (3S,4R)-3-fluoro-1-(4-((5-isopropyl-8-(1,6-diazaspiro[3.3]heptan-1-yl)-2,7-naphthyridin-3-yl)amino)pyrimidin-2-yl)-3-methylpiperidin-4-ol]: over 50 nM and under 15 nM. The matching figures for `CC(C)c1cnc(N2CCC23CN(C)C3)c2cnc(Nc3ccnc(N4CC[C@@H](O)[C@@](C)(F)C4)n3)cc12` [Example 192, (3S,4R)-3-fluoro-1-(4-((5-isopropyl-8-(6-methyl-1,6-diazaspiro[3.3]heptan-1-yl)-2,7-naphthyridin-3-yl)amino)pyrimidin-2-yl)-3-methylpiperidin-4-ol trifluoroacetate]: 30 to 50 nM and under 15 nM. In the case of `CC(C)c1cnc(N2CCC23CN(C(C)C)C3)c2cnc(Nc3ccnc(N4CC[C@@H](O)[C@@](C)(F)C4)n3)cc12` [Example 193, (3S,4R)-3-fluoro-1-(4-((5-isopropyl-8-(6-isopropyl-1,6-diazaspiro[3.3]heptan-1-yl)-2,7-naphthyridin-3-yl)amino)pyrimidin-2-yl)-3-methylpiperidin-4-ol], the values for the IC50 (in assay [1]; on EGFR (L858R T790M C797S)) were 20 to 30 nM and under 15 nM, respectively.

With `CC(C)c1ncc(N2CCC23CN(C)C3)c2cnc(Nc3ccnc(N4CC[C@@H](O)[C@@](C)(F)C4)n3)cc12` [Example 195, (3S,4R)-3-fluoro-1-(4-((5-isopropyl-8-(6-methyl-1,6-diazaspiro[3.3]heptan-1-yl)-2,6-naphthyridin-3-yl)amino)pyrimidin-2-yl)-3-methylpiperidin-4-ol], the values for the IC50 (in assay [1]; on EGFR (L858R T790M C797S)) were 30 to 50 nM and 20 to 30 nM, respectively.

In the case of `CC(C)c1cnc(N2CCC23CCN(C)CC3)c2cnc(Nc3ccnc(N4CC[C@@H](O)[C@@](C)(F)C4)n3)cc12` [Example 196, (3S,4R)-3-fluoro-1-(4-((5-isopropyl-8-(7-methyl-1,7-diazaspiro[3.5]nonan-1-yl)-2,7-naphthyridin-3-yl)amino)pyrimidin-2-yl)-3-methylpiperidin-4-ol], the IC50 in assay [1] was 10 to 20 nM; on EGFR (L858R T790M C797S), under 15 nM. `CNC[C@@H]1CCCN1c1ncc(C(C)C)c2cc(Nc3ccnc(N4CC[C@@H](O)[C@@](C)(F)C4)n3)ncc12` [Example 197, (3S,4R)-3-fluoro-1-(4-((5-isopropyl-8-((S)-2-((methylamino)methyl)pyrrolidin-1-yl)-2,7-naphthyridin-3-yl)amino)pyrimidin-2-yl)-3-methylpiperidin-4-ol]: the concentration for half-maximal inhibition (IC50) is 30 to 50 nM in assay [1] and under 15 nM on EGFR (L858R T790M C797S). Regarding `CNCCO[C@H]1CCN(c2nccc(Nc3cc4c(C(C)C)cnc(N5CC[C@H]5C)c4cn3)n2)C[C@H]1F` [Example 200, N-(2-((3R,4S)-3-fluoro-4-(2-(methylamino)ethoxy)piperidin-1-yl)pyrimidin-4-yl)-5-isopropyl-8-((R)-2-methylazetidin-1-yl)-2,7-naphthyridin-3-amine], the IC50 is under 10 nM in assay [1] and under 15 nM on EGFR (L858R T790M C797S). The matching figures for `CNCCO[C@@H]1CCN(c2nccc(Nc3cc4c(C(C)C)cnc(N5CC[C@H]5C)c4cn3)n2)C[C@@H]1F` [Example 201, N-(2-((3S,4R)-3-fluoro-4-(2-(methylamino)ethoxy)piperidin-1-yl)pyrimidin-4-yl)-5-isopropyl-8-((R)-2-methylazetidin-1-yl)-2,7-naphthyridin-3-amine]: 10 to 20 nM and under 15 nM.

Turning to `CC(C)c1cnc(N2CC[C@H]2C)c2cnc(Nc3ccnc(N4CC[C@H](OCCN(C)C)[C@H](F)C4)n3)cc12` [Example 202, N-(2-((3R,4S)-4-(2-(dimethylamino)ethoxy)-3-fluoropiperidin-1-yl)pyrimidin-4-yl)-5-isopropyl-8-((R)-2-methylazetidin-1-yl)-2,7-naphthyridin-3-amine], the half-inhibitory concentration (IC50) in assay [1] is 30 to 50 nM; on EGFR (L858R T790M C797S), 30 to 100 nM. Consider `CC(C)c1cnc(N2CC[C@H]2C)c2cnc(Nc3ccnc(N4CC[C@@H](OCCN(C)C)[C@@H](F)C4)n3)cc12` [Example 203, N-(2-((3S,4R)-4-(2-(dimethylamino)ethoxy)-3-fluoropiperidin-1-yl)pyrimidin-4-yl)-5-isopropyl-8-((R)-2-methylazetidin-1-yl)-2,7-naphthyridin-3-amine], for which the half-inhibitory concentration (IC50) in assay [1] is 30 to 50 nM; at EGFR (L858R T790M C797S), under 15 nM. In the case of `CC(C)c1cnc(N2CC(n3ccnc3)C2)c2cnc(Nc3ccnc(N4CC[C@@H](O)[C@@](C)(F)C4)n3)cc12` [Example 219, (3S,4R)-1-(4-((8-(3-(1H-imidazol-1-yl)azetidin-1-yl)-5-isopropyl-2,7-naphthyridin-3-yl)amino)pyrimidin-2-yl)-3-fluoro-3-methylpiperidin-4-ol], the concentration for half-maximal inhibition (IC50) is over 50 nM in assay [1] and 20 to 30 nM on EGFR (L858R T790M C797S). For the compound `C=CC(=O)Nc1cc(Nc2nccc(-c3cn(C)c4ccccc34)n2)c(OC)cc1N(C)CCN(C)C` [osimertinib], the “time of treatment until resistance” value in assay [2] is reported as “approximately 10 months”.
